From ChEMBL document CHEMBL4507263, “Data for DCP probe BAY-474” (2021) come the findings set out here.

Experiment [1] concerns the target Aurora kinase A (Homo sapiens) (UniProt O14965). Kind of experiment: Aurora-A( h) Millipore kinase activity assay. To be noted: Compound concentration 1.0 uM.
Experiment [2] deals with Casein kinase I isoform delta (Homo sapiens) (UniProt P48730). Kind of experiment: CK1delta (h) Millipore kinase activity assay. To be noted: Compound concentration 1.0 uM.
Experiment [3] deals with Casein kinase II subunit alpha' (Homo sapiens) (UniProt P19784). Nature of the experiment: CK2alpha2 (h) Millipore kinase activity assay. To be noted: Compound concentration 1.0 uM.
The target in experiment [4] is Fibroblast growth factor receptor 1 (Homo sapiens) (UniProt P11362). Nature of the experiment: FGFR1 (h) Millipore kinase activity assay. To be noted: Compound concentration 1.0 uM.
Experiment [5] addresses Tyrosine-protein kinase JAK3 (Homo sapiens) (UniProt P52333). Nature of the experiment: JAK3 (h) Millipore kinase activity assay. To be noted: Compound concentration 1.0 uM.
Experiment [6] has as its target Tyrosine-protein kinase Mer (Homo sapiens) (UniProt Q12866). Nature of the experiment: Mer (h) Millipore kinase activity assay. To be noted: Compound concentration 1.0 uM.
For experiment [7], the target named is Serine/threonine-protein kinase MRCK beta (Homo sapiens) (UniProt Q9Y5S2). Nature of the experiment: MRCKbeta (h) Millipore kinase activity assay. To be noted: Compound concentration 1.0 uM.
The target of experiment [8] is Histamine H1 receptor (Homo sapiens) (UniProt P35367). To be noted: Compound concentration 10.0 uM.
The target of experiment [9] is T1, 5-hydroxytryptamine receptor 1A (Homo sapiens) (UniProt P08908).
T1 sequence (whole entry): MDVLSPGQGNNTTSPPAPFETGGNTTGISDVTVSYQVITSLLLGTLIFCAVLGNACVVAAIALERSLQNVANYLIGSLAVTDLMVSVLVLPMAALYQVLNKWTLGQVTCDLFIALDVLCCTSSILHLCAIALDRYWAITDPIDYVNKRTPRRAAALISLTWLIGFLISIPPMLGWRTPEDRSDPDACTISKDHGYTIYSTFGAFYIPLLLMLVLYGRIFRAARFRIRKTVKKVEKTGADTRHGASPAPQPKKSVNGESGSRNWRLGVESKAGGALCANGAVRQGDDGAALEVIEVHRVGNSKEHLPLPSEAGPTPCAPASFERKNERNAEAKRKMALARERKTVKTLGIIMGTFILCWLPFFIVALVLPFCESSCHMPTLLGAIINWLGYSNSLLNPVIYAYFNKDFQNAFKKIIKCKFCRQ
To be noted: Compound concentration 10.0 uM.

The species entered for a further experiment is Rattus norvegicus. To be noted: Compound concentration 10.0 uM.
The target of experiment [10] is Aurora kinase C (Homo sapiens) (UniProt Q9UQB9). To be noted: Compound concentration 1000.0 nM.
For experiment [11], the target named is Serine/threonine-protein kinase BRSK1 (Homo sapiens) (UniProt Q8TDC3). To be noted: Compound concentration 1000.0 nM.
In experiment [12] the target is Calcium/calmodulin-dependent protein kinase type II subunit beta (Homo sapiens) (UniProt Q13554). To be noted: Compound concentration 1000.0 nM.
The target in experiment [13] is Citron Rho-interacting kinase (Homo sapiens) (UniProt O14578). To be noted: Compound concentration 1000.0 nM.
The target in experiment [14] is Ephrin type-A receptor 5 (Homo sapiens) (UniProt P54756). To be noted: Compound concentration 1000.0 nM.
Experiment [15] deals with Receptor-type tyrosine-protein kinase FLT3 (Homo sapiens), P36888 [D835Y]. To be noted: Compound concentration 1000.0 nM.
For experiment [16], the target named is Mitogen-activated protein kinase kinase kinase 1 (Homo sapiens) (UniProt Q13233). To be noted: Compound concentration 1000.0 nM.
Experiment [17] concerns the target Serine/threonine-protein kinase MARK2 (Homo sapiens) (UniProt Q7KZI7). To be noted: Compound concentration 1000.0 nM.
The test system of experiment [18] is Hepatocyte growth factor receptor (Homo sapiens), P08581 [M1250T]. To be noted: Compound concentration 1000.0 nM.
Experiment [19] concerns Hepatocyte growth factor receptor (Homo sapiens), P08581 [Y1235D]. To be noted: Compound concentration 1000.0 nM.
The target in experiment [20] is Misshapen-like kinase 1 (Homo sapiens) (UniProt Q8N4C8). To be noted: Compound concentration 1000.0 nM.
Experiment [21] concerns the target Dual specificity mitogen-activated protein kinase kinase 7 (Homo sapiens) (UniProt O14733). To be noted: Compound concentration 1000.0 nM.
Experiment [22] addresses Serine/threonine-protein kinase 24 (Homo sapiens) (UniProt Q9Y6E0). To be noted: Compound concentration 1000.0 nM.
Experiment [23] addresses Serine/threonine-protein kinase Nek11 (Homo sapiens) (UniProt Q8NG66). To be noted: Compound concentration 1000.0 nM.
In experiment [24] the target is Serine/threonine-protein kinase Nek5 (Homo sapiens) (UniProt Q6P3R8). To be noted: Compound concentration 1000.0 nM.
Experiment [25] concerns the target Phosphatidylinositol 3-kinase C2 domain-containing subunit gamma (Homo sapiens) (UniProt O75747). To be noted: Compound concentration 1000.0 nM.
Experiment [26] addresses Protein kinase C delta type (Homo sapiens) (UniProt Q05655). To be noted: Compound concentration 1000.0 nM.
For experiment [27], the target named is Protein kinase C eta type (Homo sapiens) (UniProt P24723). To be noted: Compound concentration 1000.0 nM.
In experiment [28] the target is Serine/threonine-protein kinase PRP4 homolog (Homo sapiens) (UniProt Q13523). To be noted: Compound concentration 1000.0 nM.
The target of experiment [29] is Serine/threonine-protein kinase RIO1 (Homo sapiens) (UniProt Q9BRS2). To be noted: Compound concentration 1000.0 nM.
For experiment [30], the target named is Serine/threonine-protein kinase RIO3 (Homo sapiens) (UniProt O14730). To be noted: Compound concentration 1000.0 nM.
In experiment [31] the target is Proto-oncogene tyrosine-protein kinase ROS (Homo sapiens) (UniProt P08922). To be noted: Compound concentration 1000.0 nM.
For experiment [32], the target named is Ribosomal protein S6 kinase alpha-2 (Homo sapiens) (UniProt Q15349). To be noted: Compound concentration 1000.0 nM.
Experiment [33] deals with STE20-like serine/threonine-protein kinase (Homo sapiens) (UniProt Q9H2G2). To be noted: Compound concentration 1000.0 nM.
Experiment [34] deals with SNF-related serine/threonine-protein kinase (Homo sapiens) (UniProt Q9NRH2). To be noted: Compound concentration 1000.0 nM.
Experiment [35] addresses STE20/SPS1-related proline-alanine-rich protein kinase (Homo sapiens) (UniProt Q9UEW8). To be noted: Compound concentration 1000.0 nM.
In experiment [36] the target is Tyrosine-protein kinase ZAP-70 (Homo sapiens) (UniProt P43403). To be noted: Compound concentration 1000.0 nM.
Experiment [37] has as its target 5-hydroxytryptamine receptor 2B (Homo sapiens) (UniProt P41595). To be noted: Compound concentration 10.0 uM.
Experiment [38] has as its target GABA-A receptor; anion channel (Rattus norvegicus) (UniProt O09028+P15431+P18506+P18508+P19969+P20236+P23574+P23576+P28471+P28473+P30191+P62813+P63079+P63138+Q91ZM7+Q9ES14). To be noted: Compound concentration 10.0 uM.

SMILES strings stand for the structures.

Calcium/calmodulin-dependent protein kinase type II subunit beta (Homo sapiens), sequence (Q13554 whole entry): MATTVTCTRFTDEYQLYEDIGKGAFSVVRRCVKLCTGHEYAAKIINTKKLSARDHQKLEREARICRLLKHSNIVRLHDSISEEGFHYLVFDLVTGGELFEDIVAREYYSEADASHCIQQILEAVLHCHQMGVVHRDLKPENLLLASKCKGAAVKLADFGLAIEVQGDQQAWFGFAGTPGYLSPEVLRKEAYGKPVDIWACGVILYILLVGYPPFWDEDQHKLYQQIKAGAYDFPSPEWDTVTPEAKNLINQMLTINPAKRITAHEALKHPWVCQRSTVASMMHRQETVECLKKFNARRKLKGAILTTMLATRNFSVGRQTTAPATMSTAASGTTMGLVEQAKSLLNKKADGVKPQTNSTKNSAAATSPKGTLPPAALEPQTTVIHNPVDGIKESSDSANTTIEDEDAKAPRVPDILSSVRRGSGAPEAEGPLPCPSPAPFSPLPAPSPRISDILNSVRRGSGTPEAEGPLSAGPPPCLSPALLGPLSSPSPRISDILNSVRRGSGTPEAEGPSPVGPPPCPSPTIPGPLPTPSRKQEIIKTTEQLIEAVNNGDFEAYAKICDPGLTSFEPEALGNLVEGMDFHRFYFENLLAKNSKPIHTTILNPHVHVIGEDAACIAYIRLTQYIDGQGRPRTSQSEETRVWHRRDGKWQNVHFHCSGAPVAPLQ
Serine/threonine-protein kinase BRSK1 (Homo sapiens), sequence (Q8TDC3 whole entry): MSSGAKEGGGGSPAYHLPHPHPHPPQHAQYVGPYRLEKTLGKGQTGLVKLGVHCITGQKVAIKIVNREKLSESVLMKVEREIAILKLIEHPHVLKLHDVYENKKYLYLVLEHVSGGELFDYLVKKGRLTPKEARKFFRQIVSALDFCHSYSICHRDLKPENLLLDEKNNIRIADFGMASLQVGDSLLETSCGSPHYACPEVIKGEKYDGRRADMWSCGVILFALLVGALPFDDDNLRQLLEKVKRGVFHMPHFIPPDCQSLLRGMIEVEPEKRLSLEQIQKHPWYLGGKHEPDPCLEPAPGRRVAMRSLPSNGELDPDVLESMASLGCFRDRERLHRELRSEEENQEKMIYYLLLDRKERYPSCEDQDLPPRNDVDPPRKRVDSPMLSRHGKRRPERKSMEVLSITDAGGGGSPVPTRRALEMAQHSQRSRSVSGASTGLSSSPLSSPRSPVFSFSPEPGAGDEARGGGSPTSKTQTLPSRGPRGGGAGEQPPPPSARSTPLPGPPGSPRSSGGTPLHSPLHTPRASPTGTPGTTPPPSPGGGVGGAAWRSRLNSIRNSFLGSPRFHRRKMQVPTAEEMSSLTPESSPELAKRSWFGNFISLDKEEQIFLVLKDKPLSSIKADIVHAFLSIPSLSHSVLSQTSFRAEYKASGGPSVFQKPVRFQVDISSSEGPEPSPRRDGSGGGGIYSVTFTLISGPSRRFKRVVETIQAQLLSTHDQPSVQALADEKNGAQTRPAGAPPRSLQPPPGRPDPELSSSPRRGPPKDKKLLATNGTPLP
Aurora kinase C (Homo sapiens), sequence (Q9UQB9 whole entry): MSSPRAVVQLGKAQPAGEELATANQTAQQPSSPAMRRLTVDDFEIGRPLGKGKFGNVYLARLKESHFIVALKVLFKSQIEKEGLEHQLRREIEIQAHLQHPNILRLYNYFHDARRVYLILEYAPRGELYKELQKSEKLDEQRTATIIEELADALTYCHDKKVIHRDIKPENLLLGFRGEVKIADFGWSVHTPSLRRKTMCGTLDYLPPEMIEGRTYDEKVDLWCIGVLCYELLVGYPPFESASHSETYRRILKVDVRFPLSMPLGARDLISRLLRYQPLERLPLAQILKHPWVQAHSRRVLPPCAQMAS
Serine/threonine-protein kinase MARK2 (Homo sapiens), sequence (Q7KZI7 whole entry): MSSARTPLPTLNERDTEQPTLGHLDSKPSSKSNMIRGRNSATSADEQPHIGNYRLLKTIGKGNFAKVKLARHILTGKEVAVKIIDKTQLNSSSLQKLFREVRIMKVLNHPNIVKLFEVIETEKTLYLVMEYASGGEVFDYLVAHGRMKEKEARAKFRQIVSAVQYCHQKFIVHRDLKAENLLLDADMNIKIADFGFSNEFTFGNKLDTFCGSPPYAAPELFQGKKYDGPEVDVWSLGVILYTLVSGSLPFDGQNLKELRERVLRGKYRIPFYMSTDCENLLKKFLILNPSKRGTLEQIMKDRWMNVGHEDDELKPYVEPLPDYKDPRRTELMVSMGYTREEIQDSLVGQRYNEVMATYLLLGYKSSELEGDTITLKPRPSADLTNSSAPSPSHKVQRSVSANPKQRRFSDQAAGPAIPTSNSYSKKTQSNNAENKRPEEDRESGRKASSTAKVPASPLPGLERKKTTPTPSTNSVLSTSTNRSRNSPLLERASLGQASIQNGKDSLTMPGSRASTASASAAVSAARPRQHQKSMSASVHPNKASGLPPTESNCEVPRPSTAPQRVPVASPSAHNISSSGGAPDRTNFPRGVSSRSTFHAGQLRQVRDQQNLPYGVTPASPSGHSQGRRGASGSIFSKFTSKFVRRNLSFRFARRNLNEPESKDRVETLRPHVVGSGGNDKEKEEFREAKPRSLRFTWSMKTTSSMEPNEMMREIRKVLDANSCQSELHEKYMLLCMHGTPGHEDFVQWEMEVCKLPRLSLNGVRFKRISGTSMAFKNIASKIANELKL
Serine/threonine-protein kinase RIO3 (Homo sapiens), sequence (O14730 whole entry): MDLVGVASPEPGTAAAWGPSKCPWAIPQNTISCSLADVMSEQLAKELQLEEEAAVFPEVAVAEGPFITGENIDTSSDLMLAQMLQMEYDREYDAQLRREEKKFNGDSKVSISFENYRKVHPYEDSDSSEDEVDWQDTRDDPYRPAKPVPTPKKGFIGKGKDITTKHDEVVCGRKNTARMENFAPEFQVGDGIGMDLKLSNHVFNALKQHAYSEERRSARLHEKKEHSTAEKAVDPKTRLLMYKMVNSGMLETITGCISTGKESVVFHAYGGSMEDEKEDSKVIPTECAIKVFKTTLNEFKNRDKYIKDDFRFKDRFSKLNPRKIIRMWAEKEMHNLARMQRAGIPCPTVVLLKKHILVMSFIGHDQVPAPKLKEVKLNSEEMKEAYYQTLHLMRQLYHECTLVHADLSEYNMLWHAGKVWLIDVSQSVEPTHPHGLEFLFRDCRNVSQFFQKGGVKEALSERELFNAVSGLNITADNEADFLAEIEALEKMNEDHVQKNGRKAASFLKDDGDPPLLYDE
Dual specificity mitogen-activated protein kinase kinase 7 (Homo sapiens), sequence (O14733 whole entry): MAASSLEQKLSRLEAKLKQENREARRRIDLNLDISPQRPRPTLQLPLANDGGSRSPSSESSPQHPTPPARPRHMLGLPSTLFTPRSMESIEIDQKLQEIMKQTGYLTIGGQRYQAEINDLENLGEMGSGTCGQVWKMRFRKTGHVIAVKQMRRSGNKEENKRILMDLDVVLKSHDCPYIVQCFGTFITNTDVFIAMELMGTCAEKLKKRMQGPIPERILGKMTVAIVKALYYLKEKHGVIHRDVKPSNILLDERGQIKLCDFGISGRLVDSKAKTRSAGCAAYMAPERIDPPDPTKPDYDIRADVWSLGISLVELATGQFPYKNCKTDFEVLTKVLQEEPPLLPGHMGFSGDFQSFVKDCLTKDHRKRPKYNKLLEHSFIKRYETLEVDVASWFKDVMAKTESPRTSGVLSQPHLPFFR
Ephrin type-A receptor 5 (Homo sapiens), sequence (P54756 whole entry): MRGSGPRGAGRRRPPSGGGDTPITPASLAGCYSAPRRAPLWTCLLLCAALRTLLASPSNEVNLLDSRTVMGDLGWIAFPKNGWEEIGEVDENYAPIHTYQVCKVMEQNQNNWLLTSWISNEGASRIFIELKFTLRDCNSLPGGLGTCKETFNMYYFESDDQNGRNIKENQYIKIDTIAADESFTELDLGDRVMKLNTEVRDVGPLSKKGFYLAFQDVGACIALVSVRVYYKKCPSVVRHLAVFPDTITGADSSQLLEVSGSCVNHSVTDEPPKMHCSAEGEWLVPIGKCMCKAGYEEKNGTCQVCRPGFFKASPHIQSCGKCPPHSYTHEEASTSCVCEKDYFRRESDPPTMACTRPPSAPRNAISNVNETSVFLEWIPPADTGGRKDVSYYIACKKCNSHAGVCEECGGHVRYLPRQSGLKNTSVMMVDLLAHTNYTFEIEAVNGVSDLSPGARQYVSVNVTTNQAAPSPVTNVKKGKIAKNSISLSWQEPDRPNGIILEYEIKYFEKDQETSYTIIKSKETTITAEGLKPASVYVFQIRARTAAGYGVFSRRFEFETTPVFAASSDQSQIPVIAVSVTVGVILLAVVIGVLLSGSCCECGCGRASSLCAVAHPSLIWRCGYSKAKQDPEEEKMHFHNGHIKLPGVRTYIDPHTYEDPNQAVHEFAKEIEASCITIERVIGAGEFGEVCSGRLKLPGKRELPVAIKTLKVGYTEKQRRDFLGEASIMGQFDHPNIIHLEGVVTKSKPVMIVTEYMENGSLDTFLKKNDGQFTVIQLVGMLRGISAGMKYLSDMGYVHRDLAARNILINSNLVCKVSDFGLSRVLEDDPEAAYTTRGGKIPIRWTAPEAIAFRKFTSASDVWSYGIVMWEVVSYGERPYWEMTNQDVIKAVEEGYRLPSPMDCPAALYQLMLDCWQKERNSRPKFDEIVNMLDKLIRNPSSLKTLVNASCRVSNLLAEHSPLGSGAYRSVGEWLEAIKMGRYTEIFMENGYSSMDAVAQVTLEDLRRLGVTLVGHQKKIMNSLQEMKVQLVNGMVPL
Histamine H1 receptor (Homo sapiens), sequence (P35367 whole entry): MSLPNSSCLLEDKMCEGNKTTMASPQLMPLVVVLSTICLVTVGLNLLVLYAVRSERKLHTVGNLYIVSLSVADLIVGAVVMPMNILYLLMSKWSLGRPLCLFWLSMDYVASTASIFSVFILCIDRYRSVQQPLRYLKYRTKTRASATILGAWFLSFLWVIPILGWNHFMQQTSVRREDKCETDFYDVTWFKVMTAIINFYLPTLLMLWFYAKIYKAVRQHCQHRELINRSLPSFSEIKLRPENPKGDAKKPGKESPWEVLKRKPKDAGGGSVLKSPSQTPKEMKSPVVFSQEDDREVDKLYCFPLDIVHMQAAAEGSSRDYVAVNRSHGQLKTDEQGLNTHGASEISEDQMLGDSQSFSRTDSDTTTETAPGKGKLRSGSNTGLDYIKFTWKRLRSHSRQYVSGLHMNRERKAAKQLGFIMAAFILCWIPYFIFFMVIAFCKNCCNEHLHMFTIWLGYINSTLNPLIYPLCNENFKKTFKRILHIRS

`CC1=C(C#N)C(c2ccc3[nH]nc(C)c3c2)C(C#N)=C(C)N1` [BAY-474]: the inhibition in [1] was 40%; in experiment [2] it was 3%; in experiment [3], -2%; in experiment [4] it was 23%; in experiment [5], -7%; in experiment [6], 12%. Moreover, the inhibition in experiment [7] was -7%; in experiment [8], 1%; in [9], -9%; in the experiment listed under Rattus norvegicus, 1%.
As to `CC1=C(C#N)[C@@H](c2ccc3[nH]nc(C)c3c2)C(C#N)=C(c2ccc(Cl)cc2)N1` [BAY-827], the residual activity in experiment [10] is 100%; in [11], 100%; in experiment [12] it was 100%; in experiment [13], 100%; in [14] it was 100%; in experiment [15], 93.5%. The residual activity is 100% in experiment [16]; 100% in [17]; 25.1% in experiment [18]; 52.6% in experiment [19]; 77% in [20]; 92.2% in [21]. Further, the residual activity is 100% in experiment [22]; 62.4% in experiment [23]; 80.3% in experiment [24]; 93.9% in [25]; 86.3% in [26]; 96.1% in experiment [27]. For the same compound, the residual activity is 100% in experiment [28]; 100% in [29]; 100% in experiment [30]; 100% in experiment [31]; 85.4% in experiment [32]; 100% in experiment [33]. In addition, the residual activity in experiment [34] was 100%; in experiment [35], 90.7%; in experiment [36], 85.4%. In addition, the inhibition in experiment [37] was -7.44%; in experiment [38] it was -7.24%.

Usually inhibition stands for the relative decrease from the control value, in per cent.
